The target of test [1] is muscarine receptors. Put plainly: Receptor bonding studies (radioligand L(+)cis-[2-methyl-^3 H]-N,N,N-trimethyl-1,3-dioxolane-4-methanammonium iodide). It is filed as binding. To be noted: cerebral cortex (rat); radioligand L(+)cis-[2-methyl-^3 H]-N,N,N-trimethyl-1,3-dioxolane-4-methanammonium iodide NET-647. How it is done:
The compounds of the general formula I have useful pharmacological properties.
The receptor bonding studies were performed in accordance with the following literature reference [A. Closse, H. bittiger, D. Langenegger and A. Wahner; Naunyn-Schmiedeberg's Arch. Pharmacol. 335,372-377 (1987)].
Receptor bonding studies
L(+)cis-[2-methyl-^3 H]-N,N,N-trimethyl-1,3-
dioxolane-4-methanammonium iodide NET-647,
NEN (New England Nuclear DU PONT).
Organ: Cerebral cortex (rat)

Test [2] concerns conscious rabbit. Put plainly: EEG (electroencephalogram) of the conscious rabbit. The test is classed as in vivo. To be noted: 3 mg/kg i.v.

pKi: −log10 of the molar value.

In the case of `CCCOC1CN2CCC1CC2` (stereo not drawn) [nC3 H7], the pKi – broadly, −log10 of the Ki, conventionally taken in molar units – in test [1] was 6.66.

In turn, `C#CCOC1CN2CCC1CC2` (stereo not drawn) [Example 1, 3-(2-Propynyloxy)-1-azabicyclo[2,2,2]octane] had a pKi in test [1] of 6.80. In test [2], the “arousal reaction in the EEG” value is given as “exhibits an arousal reaction typical of cholinomimetics”.

(Values after US5286864A, “Quinuclidines, their use as medicaments and processes for their preparation” (Boehringer Ingelheim KG, priority 1988, dated 1994).)
